Measured values: patent publication US20220195027A1, “ANTI-ANGIOGENESIS THERAPY FOR THE TREATMENT OF PREVIOUSLY TREATED BREAST CANCER” (Genentech, Inc., priority 2009, published 2022)
Like-named read-outs stand apart in the source and are kept apart here.

Experiments:
[1] = tested on: metastatic breast cancer; details: patients who previously received or were not candidates for anthracyclines; cited from earlier work
[2] = tested on: metastatic breast cancer; details: MBC patients with prior anthracycline therapy; cited from earlier work
[3] = RIBBON 2 Phase III study, safety (adverse events), safety population; format: in vivo; details: in combination with chemotherapy
From the text: Ribbon 2 was an international, multicenter, randomized, double-blind, placebo-controlled clinical study that enrolled 684 patients with metastatic HER2-negative breast cancer who had previously received chemotherapy for their metastatic disease. […] The trial evaluated the addition of either Avastin® (bevacizumab) or placebo to an investigator's choice of chemotherapy. The following chemotherapy regimens were used in the study: taxanes: paclitaxel, protein-bound paclitaxel or docetaxel; gemcitabine; capecitabine; or vinorelbine.

[4] = tested on: previously treated metastatic HER2-negative breast cancer; test: RIBBON 2 Phase III study, efficacy (PFS, OS) of bevacizumab or placebo plus chemotherapy; format: in vivo, human; details: for Progression free survival, result in words: in combination with chemotherapy, compared to chemotherapy alone
Method: The doctors treating the women in the study chose the type of chemotherapy used in combination with Avastin and the chemotherapies were assessed together in the primary endpoint analysis. […] Ribbon 2 was an international, multicenter, randomized, double-blind, placebo-controlled clinical study that enrolled 684 patients with metastatic HER2-negative breast cancer who had previously received chemotherapy for their metastatic disease. See Study Conduct in Table 1 and Patient Characteristics in Table 2. The trial evaluated the addition of either Avastin® (bevacizumab) or placebo to an investigator's choice of chemotherapy. The following chemotherapy regimens were used in the study: taxanes: paclitaxel, protein-bound paclitaxel or docetaxel; gemcitabine; capecitabine; or vinorelbine. Bevacizumab (5 mg/kg Weekly Equivalent) 15 mg/kg IV q 3 weeks; or […] Plus Chemotherapy Taxane • Paclitaxel (e.g., Taxol®): 90 mg/m^2 IV every week for 3 weeks followed by 1 week of rest; or • Paclitaxel (e.g., Taxol®): 175 mg/m^2 IV every 3 weeks; or • Paclitaxel protein-bound particles (Abraxane®): 260 mg/m^2 IV every 3 weeks; or • Docetaxel (Taxotere®): 75-100 mg/m^2 IV every 3 weeks; or Gemcitabine (Gemzar®): 1250 mg/m^2 IV on Days 1 and 8 of each 3-week cycle; or Vinorelbine (Navelbine®): 30 mg/m^2 IV every week; or […] In the study, PFS was defined as the time from randomization to disease progression or death as assessed by the treating physicians in the study (investigator-assessed). Secondary endpoints included objective response rate, duration of response, one-year survival rate, overall survival, PFS assessment by chemotherapy type and safety. […] See Table 3 Primary Efficacy Analysis of PFS and FIG. 2 (Primary Endpoint of PFS) and FIG. 3 (Cohort-Specific Analyses of PFS). PFS results were generally consistent across chemotherapy cohorts with the exception of the small vinorelbine sub-group. Other sub-groups (age, triple negative, etc.) were generally consistent with the primary PFS results. The observed improvement in overall PFS was supported by the secondary efficacy endpoint of ORR. See Table 4 for Interim Efficacy Analysis of OS. […] See, e.g., Table 5, Safety Summary, Safety Population, Table 6 Selected AEs, Safety Population and Table 7 Safety Summary by Chemotherapy Cohort, Safety Population. Bevacizumab was beneficial to patients as a second-line treatment.

Compound | survival [1] [months] | time to progression [1] [months] | survival [2] [months] | time to disease progression [2] [months] | Safety signals, result in words [3] | Safety signals, result in words ([3]; listed as Avastin) | PFS stratified analysis HR (95% CI) ([4]; Chemo/BV vs Chemo/PL, ITT population) | PFS median ([4]; ITT population, investigator-assessed) [months] | Progression free survival, result in words [4] | Progression free survival, result in words ([4]; listed as Avastin)
CC(=O)O[C@@]12CO[C@@H]1C[C@H](O)[C@@]1(C)C(=O)[C@H](O)C3=C(C)[C@@H](OC(=O)[C@H](O)[C@@H](NC(=O)OC(C)(C)C)c4ccccc4)C[C@@](O)([C@@H](OC(=O)c4ccccc4)[C@H]21)C3(C)C [docetaxel] | 11.5 | 4.2 | 11.4 | 4.4 | – | – | – | – | – | –
bevacizumab: recombinant humanized anti-VEGF monoclonal antibody with human IgG1 framework and CDRs from murine antibody A.4.6.1 | – | – | – | – | No new bevacizumab safety signals were observed | no new Avastin safety signals were observed | 0.775 | 7.2 | increase in progression free survival | increased the time
